Results as given in ChEMBL document CHEMBL1201862, “PubChem BioAssay data set” (2004).
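1) Cells in 96-well plates. 2) Compound, 48 h, 5 concentrations. 3) Linear interpolation between surrounding doses. 4) Unreached endpoint = highest concentration. Abbreviation: GI50, concentration required for 50% inhibition of growth.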 Activity calls are given as the source filed them. Cut-off read from the data, not from the text of the source: active = GI50 up to about 1.1 µM and inactive = higher.

Tests used:
Experiment in all cases: NCI-60 cell line screen, 48 h
Hs-578T = tested on: Hs-578T
OVCAR-4 = tested on: OVCAR-4
OVCAR-8 = tested on: OVCAR-8
IGROV-1 = tested on: IGROV-1
MDA-MB-435 = tested on: MDA-MB-435
SK-MEL-2 = tested on: SK-MEL-2
HCC 2998 = tested on: HCC 2998
OVCAR-5 = tested on: OVCAR-5
PC-3 = tested on: PC-3
SF-295 = tested on: SF-295
TK-10 = tested on: TK-10
MCF7 = tested on: MCF7
RPMI-8226 = tested on: RPMI-8226
UACC-62 = tested on: UACC-62
Malme-3M = tested on: Malme-3M
HT-29 = tested on: HT-29
CAKI-1 = tested on: CAKI-1
HOP-92 = tested on: HOP-92
CCRF-CEM = tested on: CCRF-CEM
SF-539 = tested on: SF-539

Measured: GI50

O=C(O)CCC/N=C(\C(=N\CCCC(=O)O)c1ccccc1)c1ccccc1
inactive: Hs-578T > 100 µM | OVCAR-4 > 100 µM | OVCAR-8 > 100 µM | IGROV-1 > 100 µM | MDA-MB-435 > 100 µM | SK-MEL-2 > 100 µM | HCC 2998 > 100 µM | OVCAR-5 > 100 µM | PC-3 > 100 µM | SF-295 > 100 µM | TK-10 > 100 µM | MCF7 > 100 µM | RPMI-8226 > 100 µM | UACC-62 > 100 µM

C(=C\c1ccccc1)/C=N/c1ccc2c(c1)Cc1ccccc1-2
inactive: Malme-3M > 100 µM | Hs-578T 50.8 µM | OVCAR-4 63.8 µM | OVCAR-8 57.9 µM | HT-29 > 100 µM | IGROV-1 61.5 µM | MDA-MB-435 58.1 µM | SK-MEL-2 57.1 µM | CAKI-1 > 100 µM | OVCAR-5 > 100 µM | HOP-92 > 100 µM | PC-3 69 µM | SF-295 > 100 µM | TK-10 60.8 µM | UACC-62 > 100 µM | CCRF-CEM 14.7 µM

Cc1ccc(-n2cnc(C(=N)C#N)c2N)cc1
inactive: Malme-3M > 100 µM | Hs-578T > 100 µM | OVCAR-4 > 100 µM | OVCAR-8 > 100 µM | HT-29 > 100 µM | IGROV-1 > 100 µM | MDA-MB-435 > 100 µM | SK-MEL-2 > 100 µM | HCC 2998 > 100 µM | CAKI-1 > 100 µM | OVCAR-5 > 100 µM | PC-3 > 100 µM | SF-295 > 100 µM | TK-10 > 100 µM | MCF7 > 100 µM | RPMI-8226 > 100 µM | UACC-62 > 100 µM | CCRF-CEM > 100 µM | SF-539 > 100 µM

Cc1cn([C@@H]2C[C@H]2CO)c(=O)[nH]c1=O
inactive: Malme-3M > 100 µM | OVCAR-4 > 100 µM | OVCAR-8 > 100 µM | HT-29 > 100 µM | IGROV-1 > 100 µM | MDA-MB-435 > 100 µM | SK-MEL-2 > 100 µM | HCC 2998 > 100 µM | CAKI-1 > 100 µM | OVCAR-5 > 100 µM | HOP-92 > 100 µM | PC-3 > 100 µM | TK-10 > 100 µM | MCF7 > 100 µM | RPMI-8226 > 100 µM | UACC-62 > 100 µM | CCRF-CEM > 100 µM | SF-539 57 µM

COC(=O)C1(Cc2ccc3c(c2)CCC3)Cc2ccccc2C1O (stereo not given)
inactive: Malme-3M 18.1 µM | Hs-578T 20 µM | OVCAR-4 13.9 µM | OVCAR-8 18.6 µM | HT-29 16.7 µM | IGROV-1 21.6 µM | MDA-MB-435 18.7 µM | SK-MEL-2 12.8 µM | HCC 2998 15.3 µM | CAKI-1 23.8 µM | OVCAR-5 28.6 µM | PC-3 11.5 µM | SF-295 17.5 µM | TK-10 22.1 µM | MCF7 24.3 µM | RPMI-8226 24.5 µM | UACC-62 14.5 µM | CCRF-CEM 13.1 µM | SF-539 17.5 µM

CN(C)CCOc1ccc2[nH]c(C(=O)N3CC(CCl)c4c3cc([N+](=O)[O-])c3ccccc43)cc2c1 (stereo not given)
inactive: Malme-3M 1.94 µM | Hs-578T 3.01 µM | OVCAR-8 1.6 µM | HT-29 2.15 µM | IGROV-1 2.14 µM | MDA-MB-435 2 µM | SK-MEL-2 2.15 µM | CAKI-1 2.79 µM | OVCAR-5 2.32 µM | PC-3 2.78 µM | SF-295 2.51 µM | TK-10 1.94 µM | MCF7 1.76 µM | RPMI-8226 2.67 µM | UACC-62 2.21 µM | CCRF-CEM 1.58 µM | SF-539 1.69 µM

COc1ccc2oc(=N)c(C(N)=O)cc2c1
inactive: Hs-578T 18.2 µM | OVCAR-4 48.1 µM | OVCAR-8 > 100 µM | HT-29 56.4 µM | IGROV-1 30.5 µM | MDA-MB-435 49.4 µM | SK-MEL-2 23.6 µM | HCC 2998 32.7 µM | CAKI-1 50.6 µM | OVCAR-5 > 100 µM | HOP-92 > 100 µM | PC-3 37.9 µM | RPMI-8226 > 100 µM | UACC-62 29.8 µM | CCRF-CEM 33.2 µM | SF-539 66.5 µM

O=c1n(-c2ccccc2)c(=O)n2c(-c3ccccc3)c(-c3ccccc3)n12
inactive: Malme-3M > 100 µM | Hs-578T > 100 µM | OVCAR-4 > 100 µM | OVCAR-8 > 100 µM | HT-29 70.1 µM | IGROV-1 > 100 µM | SK-MEL-2 > 100 µM | HCC 2998 77.8 µM | CAKI-1 > 100 µM | OVCAR-5 > 100 µM | HOP-92 > 100 µM | PC-3 77.8 µM | SF-295 84.1 µM | TK-10 > 100 µM | MCF7 > 100 µM | UACC-62 > 100 µM | CCRF-CEM 31.4 µM | SF-539 > 100 µM

O=C(NCCN1C(=O)CN=C(c2ccc(Cl)cc2)c2cc(Cl)ccc21)OCc1ccccc1
inactive: Malme-3M 16.8 µM | Hs-578T 17.4 µM | OVCAR-4 8.71 µM | OVCAR-8 16.3 µM | HT-29 11.8 µM | IGROV-1 15.3 µM | MDA-MB-435 15.1 µM | SK-MEL-2 18.1 µM | HCC 2998 14.3 µM | CAKI-1 14.2 µM | OVCAR-5 19.2 µM | HOP-92 14.7 µM | PC-3 11.5 µM | SF-295 13.7 µM | TK-10 16.7 µM | RPMI-8226 19.7 µM | UACC-62 14.8 µM | CCRF-CEM 11.7 µM | SF-539 18.9 µM

C[Si](C)(OCCS(=O)(=O)O)OC(=C1S(=O)(=O)OCCOS1(=O)=O)c1cccc2ccccc12
inactive: Malme-3M > 100 µM | OVCAR-4 > 100 µM | OVCAR-8 > 100 µM | HT-29 > 100 µM | IGROV-1 72.9 µM | MDA-MB-435 > 100 µM | SK-MEL-2 > 100 µM | HCC 2998 90.6 µM | CAKI-1 > 100 µM | OVCAR-5 > 100 µM | HOP-92 > 100 µM | PC-3 > 100 µM | SF-295 > 100 µM | TK-10 > 100 µM | MCF7 67.6 µM | RPMI-8226 > 100 µM | CCRF-CEM > 100 µM | SF-539 > 100 µM

S=C1CC(c2ccccc2)Sc2ccccc2N1 (stereo not given)
inactive: Malme-3M 67.1 µM | Hs-578T 25.5 µM | OVCAR-4 49.2 µM | OVCAR-8 > 100 µM | HT-29 > 100 µM | IGROV-1 > 100 µM | MDA-MB-435 61.1 µM | CAKI-1 55 µM | OVCAR-5 76.6 µM | PC-3 6.85 µM | SF-295 > 100 µM | TK-10 49.3 µM | MCF7 44.4 µM | RPMI-8226 > 100 µM | UACC-62 51.1 µM | CCRF-CEM > 100 µM
